Measured values taken from patent US20070191490A1, “Withacnistin compounds for treatment of cancer” (priority 2006, published 2007).

Key:
[1] = test system: A549 tumors; test: Antitumor activity in nude mouse xenograft model, A549; format: in vivo; details: nude mice, 1 mg/kg/day i.p., Wit = withacnistin mixture
Text: (§1) Antitumor activity in the nude mouse tumor xenograft model. Nude mice (Charles River, Wilmington, Mass., USA) were maintained in accordance with the Institutional Animal Care and Use Committee (IACUC) procedures and guidelines. A549 cells were harvested, resuspended in PBS, and injected subcutaneously (s.c.) into the right and left flank (1×10^7 cells per flank) of 8-week-old female nude mice as reported previously (Blaskovich, M. A. et al. Cancer Res., 2003, 63:1270-1279). When tumors reached about 150 mm^3, animals were randomized (four animals per group; two tumors per animal) and dosed intraperitoneally (i.p.) either with cucurbitacin analogs (0.5 or 1 mg/kg/day, i.p.) in 20% DMSO in water or with an equal volume of vehicle control. The tumor volumes were determined by measuring the length (l) and the width (w) and calculating the volume (V=lw^2/2) as described previously (Blaskovich, M. A. et al. Cancer Res., 2003, 63:1270-1279). Statistical significance between control and treated animals were evaluated by using Student's t-test.
(§2) To determine the ability of the cucurbitacin analogs and withacnistin to inhibit tumor growth in vivo, the antitumor activity of the cucurbitacin analogs and withacnistin against both A549 and v-Src/3T3 tumors in a nude mouse xenograft model was evaluated. When the tumors became palpable (at volumes of approximately 100-150 mm^3), the mice were treated either with vehicle control or 1 mg/kg/day of the cucurbitacins or the withacnistin mixture. Tumor volumes were monitored by caliper measurement as previously described (Blaskovich, M. A. et al. Cancer Res., 2003, 63:1270-1279) and under Materials and Methods.

[2] = test system: STAT3; test: Total STAT3 levels (STAT3 immunoprecipitation / immunoblot); format: cell-based, human; details: A549 cells
Experimental: STAT3 immunoprecipitation. A549 cells were treated for 4 hour with vehicle or the withacnistin mixture, then lysed in 150 mM HEPES, pH 7.5, 150 mM NaCl, 1 mM EDTA, 0.5% NP-40, 10% glycerol, 5 mM NaF, 1 mM DTT, 1 mM PMSF, 2 mM sodium orthovanadate, and 5 μg/ml leupeptin. Sample lysates were collected and cleared, then 500 μg of lysate was immunoprecipitated with 50 ng STAT3 antibody overnight at 4° C., then rocked with 25 μl Protein A/G PLUS agarose (Santa Cruz Biotechnology) for 1 hour at 4° C. Samples were washed four times with lysis buffer, then boiled in 2×SDS-PAGE sample buffer and run on 10% SDS-PAGE gel. Protein was transferred to nitrocellulose then blotted as above for both phospho-specific STAT3 and STAT3.
(§3) As further support of the specific antiphosphotyrosine STAT3, but not antiphosphotyrosine JAK2, activity of withacnistin, A549 cells, as well as two breast carcinoma cell lines (MDA-MB-435 and MDA-MB-468) that also express constitutively activated JAK2 and STAT3, were treated with the withacnistin mixture at various concentrations, and determined IC50 values of inhibition of STAT3 and JAK2 activation. […] In all three cell lines, JAK2 activation was not inhibited at withacnistin concentrations as high as 10 μM. […] Thus, in all three cell lines, withacnistin (Wit) inhibits specifically STAT3 but not JAK2 activation and Cuc A inhibits JAK2 but not STAT3 activation whereas Cuc I inhibits the activation of both STAT3 and JAK2.

[3] = test system: A549 tumors; test: TUNEL immunohistochemistry of A549 tumor sections; format: in vivo, nude mice; details: 1 mg/kg/day, control 0.4±0.1%
Experimental: TUNEL immunohistochemistry. Tumors were harvested, […], and dewaxed as described for P-STAT3 immunohistochemistry. Tissue sections (5 μm) were digested for 10 minutes with 25 μg/ml proteinase K in PBS and then washed thoroughly. Peroxidases were quenched with 3% hydrogen peroxide in PBS and washed. Sections were equilibrated with equilibration buffer, then incubated in 30% TdT enzymes/70% digoxigenin nucleotidyl reaction buffer for 1 hour at 37° C. in a humidified chamber. The labeling reaction was stopped in stop/wash buffer with moderate shaking. Slides then were placed on the Dako Autostainer and incubated with antidigoxigenin-peroxidase (DakoCytomation California, Inc.) for 30 minutes using DAB substrate. Sections were counterstained with methyl green (Vector Laboratories), dehydrated through ascending alcohol, cleared, and mounted with resinous mounting medium. The quantification was performed by counting both the TUNEL-positive and -negative cells on slides representative of eight tumors and significance was determined by Student's t-test.
(§4) To determine whether phosphotyrosine STAT3 is targeted by withacnistin in vivo, and to determine if the results seen in cell culture concerning induction of apoptosis were occurring in tumors from animals treated with withacnistin, on the termination day of the A549 antitumor experiment, tumors from animals treated with Cuc A, Cuc I, and the withacnistin mixture, as well as vehicle control, were extracted and fixed in 10% neutral-buffered formalin and then processed into paraffin blocks for tissue sectioning. These tissue sections were stained separately with either TUNEL for determination of apoptosis, or phosphotyrosine STAT3 to determine if the signaling protein is inhibited in the tumors.

[4] = test system: v-Src/3T3 tumors; test: Antitumor activity in nude mouse xenograft model, v-Src/3T3; format: in vivo; details: v-Src/3T3 xenograft, nude mice, 1 mg/kg/day i.p.; Wit = withacnistin mixture
Text: as §1, §2
Withacnistin inhibited 57% of tumor growth while Cuc I, B, and E inhibited 45, 40, and 42% of tumor growth, respectively (FIG. 3 and Table 2).

[5] = test system: phosphotyrosine STAT3; test: P-STAT3 immunohistochemistry of A549 tumor sections; format: in vivo, nude mice; details: 1 mg/kg/day; for P-STAT3 positive cells: termination day, control 76.5±1.4%
Experimental: P-STAT3 immunohistochemistry. On the termination day of the A549 antitumor experiment, tumors were extracted and fixed in 10% neutral-buffered formalin for 6 hours. After fixation, the tissue samples were processed into paraffin blocks. Tissue sections (5 μm) were dewaxed with xylene and rehydrated through descending alcohol to deionized water and then placed in PBS. Antigens were retrieved briefly with citrate buffer, pH 6.0, in a microwave followed by a mild trypsinization (0.025% trypsin in 50 mM Tris buffer containing 0.05% calcium chloride, pH 7.6). From this point, all steps were carried out in a DAKO Autostainer (DakoCytomation California, Inc., Carpinteria, Calif., USA). Sections were rinsed three times in TBS-Tween buffer, pH 7.6, then endogenous peroxidases were quenched with 3% hydrogen peroxide and nonspecific binding with 2% normal goat serum in 3% BSA/PBS. Sections then were incubated overnight with 1:400 phospho-STAT3 (Cell Signaling Technologies) at 4° C. in a humidified chamber. Detection was performed using the Elite ABC Rabbit kit (Vector Laboratories) and DAB chromogen (DakoCytomation California, Inc.) according to the manufacturer's instructions. Slides were counterstained for 20-30 seconds with modified Mayer's hematoxylin, dehydrated through ascending alcohol, cleared, and mounted with resinous mounting medium. Quantification was performed by counting both the phospho-STAT3-positive and -negative cells on slides representative of eight tumors and significance was determined by Student's t-test.
as §4

[6] = test system: JAK2; test: Total JAK2 levels in A549 cells; format: cell-based, human; details: 10 μM, data not shown
Experimental: as §3

| Structure (SMILES) | % Inhibition of tumor growth [1] [%] | total STAT3 levels ([2]; 10 μM, 4 hours) | TUNEL-positive cells [3] [%] | % Inhibition of tumor growth [4] [%] | inhibition of phosphotyrosine-STAT3 compared to vehicle control [5] | P-STAT3 positive cells [5] [%] | total JAK2 levels [6] | total STAT3 levels ([2]; by 24 hours, data not shown) |
| --- | --- | --- | --- | --- | --- | --- | --- | --- |
| CC(=O)OC(C)(C)/C=C/C(=O)[C@](C)(O)[C@H]1[C@H](O)C[C@@]2(C)[C@@H]3CC=C4[C@@H](C[C@H](O)C(=O)C4(C)C)[C@]3(CO)C(=O)C[C@]12C [Cuc A, cucurbitacin A] | 11.1 | does not affect | 0.3±0.2 | 16 | no inhibition | 80.8±1.8 | none of the three compounds affects |  |
| CC(C)(O)/C=C/C(=O)[C@](C)(O)[C@H]1[C@H](O)C[C@@]2(C)[C@@H]3CC=C4[C@@H](C=C(O)C(=O)C4(C)C)[C@]3(C)C(=O)C[C@]12C [Cuc I, cucurbitacin I] | 55.4 | does not affect | 10.5±3.0 | 45 | 28.5% | 54.7±4.5 | none of the three compounds affects |  |
| CC(=O)OC[C@]12CC[C@H]3[C@@H](C[C@H]4O[C@]45[C@@H](O)C=CC(=O)[C@]35C)[C@@H]1CC[C@@H]2[C@H](C)[C@H]1CC(C)=C(C)C(=O)O1 [withacnistin] | 73.1 | without affecting | 14.3±2.7 | 57 | 70.5% | 22.6±7.3 | none of the three compounds affects | suppressed |
